The record followed here is PubChem BioAssay (NCI).

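Values below derive from 48-hour exposures of cells grown in 96-well plates, with endpoints linearly interpolated between the two concentrations bracketing the appropriate inhibition level. Here, GI50 denotes the concentration required for 50% inhibition of growth. TGI: total growth inhibition.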 Peptide text beside a SMILES is read from it. * marks the point of attachment. X26 = Clc1c(Cl)c(Cl)c(O*)c(Cl)c1Cl; Boc = CC(C)(C)OC(=O)*; OBn = c1ccc(CO*)cc1; Bn = c1ccc(C*)cc1

Test systems include NCI-H522 lung; OVCAR-3 ovarian; OVCAR-4 ovarian; T-47D breast; MALME-3M melanoma; SN12C renal; NCI-H23 lung; IGROV1 ovarian; CCRF-CEM leukemia; SF-539 CNS.
Holding throughout (experiment): inhibition of tumour cell growth, NCI panel, 48 h

As to `O=P1(C(O)/C=C/c2ccccc2)N(Cc2ccccc2)[C@@H]2CCCC[C@H]2N1Cc1ccccc1` (some centres undefined), the TGI in the test on NCI-H522 lung is 12.1 µM; in the test on OVCAR-3 ovarian, 27.8 µM; in the test on OVCAR-4 ovarian, 26.5 µM; in the test on T-47D breast it was 35.7 µM; with MALME-3M melanoma, 8.45 µM; in the test on SN12C renal, 11.6 µM. In addition, the TGI is 21.5 µM in the test on NCI-H23 lung, 14.4 µM in the test with IGROV1 ovarian and over 100 µM in the test on CCRF-CEM leukemia.

With `C=C(C)[C@H]1CC(=O)/C(C)=C\CC/C(C)=C/CC[C@@]2(C)O[C@@H]2C1`, the TGI worked out at 42.2 µM in the test with SF-539 CNS; 43.9 µM in the test on OVCAR-3 ovarian; 75.3 µM in the test with OVCAR-4 ovarian; 88.7 µM in the test with MALME-3M melanoma; 42.7 µM in the test with SN12C renal; 51.8 µM with NCI-H23 lung. For the same molecule, the TGI in the test with IGROV1 ovarian and in the test with CCRF-CEM leukemia was over 100 µM each time.

Regarding `O=C1/C(=C/c2ccc(Cl)cc2)CCCc2ccc(F)cc21`, the GI50 in the test with NCI-H522 lung was 12.2 µM; in the test on OVCAR-3 ovarian, 16.9 µM; in the test on OVCAR-4 ovarian, 17.5 µM; with MALME-3M melanoma it was 6.45 µM; in the test with SN12C renal, 20.1 µM; in the test with NCI-H23 lung, 36.7 µM. The GI50 in the test on IGROV1 ovarian is 14.6 µM; in the test with CCRF-CEM leukemia, 11.5 µM. Also, the TGI in the test on NCI-H522 lung is 54.5 µM; in the test with OVCAR-3 ovarian, 51.4 µM; in the test with OVCAR-4 ovarian it was 51.2 µM; in the test with MALME-3M melanoma, 31.8 µM; in the test with SN12C renal it was 42.9 µM; with NCI-H23 lung it was over 100 µM. Moreover, the TGI came out at 68.3 µM with IGROV1 ovarian and 61 µM in the test with CCRF-CEM leukemia.

For the molecule `O=P(OCc1ccccc1)(OCc1ccccc1)C(O)/C=C/c1ccccc1` (centres undefined), the TGI in the test on NCI-H522 lung came out at 57.7 µM; in the test with OVCAR-3 ovarian, 43.6 µM; in the test with OVCAR-4 ovarian it was 56.1 µM; in the test on T-47D breast it was 88.3 µM; in the test with MALME-3M melanoma, 38.2 µM; with SN12C renal it was 39 µM. Moreover, the TGI with NCI-H23 lung was found to be 44.6 µM; in the test on IGROV1 ovarian it was 49.2 µM.

Take `CC(C)CC(NC(=O)C(CCC(=O)OCc1ccccc1)NC(=O)OC(C)(C)C)C(=O)NC(COCc1ccccc1)C(=O)NC(Cc1ccccc1)C(=O)Oc1c(Cl)c(Cl)c(Cl)c(Cl)c1Cl` (centres undefined) (Boc-E(OBn)LS(Bn)F-X26; configuration not given here): the TGI in the test with NCI-H522 lung was 51.4 µM; with OVCAR-4 ovarian, over 100 µM; in the test on MALME-3M melanoma it was 91.5 µM; with SN12C renal it was 90.5 µM; with NCI-H23 lung, 34.2 µM; in the test on IGROV1 ovarian, 56.3 µM. This molecule also came in with a TGI in the test on CCRF-CEM leukemia of 74.7 µM.

Consider `COc1ccc(OC)c(NC(=O)C(=O)C(C(=O)c2ccccc2F)C2OC(=O)c3ccccc32)c1` (centres undefined), for which the TGI in the test with NCI-H522 lung was 71.5 µM; with SF-539 CNS it was 82.2 µM; in the test on OVCAR-4 ovarian, over 100 µM; with SN12C renal, over 100 µM; with NCI-H23 lung, over 100 µM; in the test on IGROV1 ovarian it was over 100 µM. The TGI in the test on CCRF-CEM leukemia was 91.1 µM.

As to `O=c1c(-c2ccccc2)c(SCCN2CCCCCC2)n(-c2ccccc2)c(=S)n1-c1ccccc1`, the TGI was over 100 µM in the test with NCI-H522 lung; over 100 µM with SF-539 CNS; over 100 µM with OVCAR-3 ovarian; 53.6 µM in the test with OVCAR-4 ovarian; 49.3 µM in the test with MALME-3M melanoma; over 100 µM with NCI-H23 lung. For the same molecule, the TGI in the test on IGROV1 ovarian was over 100 µM; in the test on CCRF-CEM leukemia it was 29.4 µM.

For the molecule `CCN1CCN(Cc2ccc(NC(=O)Nc3ccc(-n4ccc5c(NC(=O)c6ccccc6)nccc54)cc3)cc2C(F)(F)F)CC1`, the GI50 in the test with OVCAR-3 ovarian was 1.32 µM; with T-47D breast, 3.54 µM; with SN12C renal, 3.17 µM; with IGROV1 ovarian, 1.42 µM; in the test with CCRF-CEM leukemia, 0.426 µM. Further, the TGI was 2.63 µM in the test with OVCAR-3 ovarian; 15.9 µM in the test on T-47D breast; over 20.7 µM in the test with SN12C renal; 4.39 µM in the test with IGROV1 ovarian; over 100 µM with CCRF-CEM leukemia.

Take `COCC#C[C@@]1(O)CCCCC1CC(OC)OC` (some centres undefined): the TGI with NCI-H522 lung was 82.5 µM; in the test with OVCAR-4 ovarian it was over 100 µM; with T-47D breast, over 100 µM; with MALME-3M melanoma it was over 100 µM; with SN12C renal, over 100 µM; with NCI-H23 lung it was over 100 µM. The TGI in the test with IGROV1 ovarian and with CCRF-CEM leukemia was over 100 µM throughout.

`CC[N+]1(C)CCC(O)(c2ccc(C)cc2)C(C(=O)c2ccc(C)cc2)C1` (centres undefined): the TGI with NCI-H522 lung is 41.7 µM; in the test with SF-539 CNS, over 100 µM; in the test with OVCAR-3 ovarian it was 39.6 µM; in the test with OVCAR-4 ovarian, 86.3 µM; in the test on MALME-3M melanoma, 52.7 µM; in the test with SN12C renal, over 100 µM. Also, the TGI in the test with NCI-H23 lung is over 100 µM; with IGROV1 ovarian it was over 100 µM; with CCRF-CEM leukemia, 44.2 µM.

With `Oc1c(OCc2nnc(CCCCCCCCc3nnc(COc4ccc5ccccc5c4O)o3)o2)ccc2ccccc12`, the TGI in the test on NCI-H522 lung, in the test with OVCAR-4 ovarian, in the test on MALME-3M melanoma, in the test on SN12C renal and with NCI-H23 lung was over 100 µM throughout.

Consider `O=c1[nH]c(=O)n(C2CC(O)C(CO)O2)cc1OC/C=C/Cc1ccccc1` (centres undefined), for which the TGI with NCI-H522 lung, in the test with OVCAR-3 ovarian, in the test with OVCAR-4 ovarian, with T-47D breast, in the test on MALME-3M melanoma and with SN12C renal was over 100 µM in each case. The TGI in the test on NCI-H23 lung, in the test with IGROV1 ovarian and in the test on CCRF-CEM leukemia was over 100 µM throughout.

For the molecule `CCOC(=O)/C=C(/C=C\COC1CCCCO1)c1ccccc1` (centres undefined), the TGI in the test on NCI-H522 lung is 83.5 µM; in the test on OVCAR-3 ovarian, 80.8 µM; in the test on OVCAR-4 ovarian it was over 100 µM; with T-47D breast, 72.3 µM; in the test with MALME-3M melanoma, over 100 µM; in the test with SN12C renal it was 49.5 µM. In addition, the TGI in the test with NCI-H23 lung, with IGROV1 ovarian and in the test on CCRF-CEM leukemia was over 100 µM in each case.

As for `Clc1ccc(OCc2nnc(COc3ccc(OCc4nnc(COc5ccc(Cl)cc5Cl)o4)c(Cl)c3)o2)c(Cl)c1`, the TGI in the test with NCI-H522 lung was 38 µM; with OVCAR-3 ovarian, 61.7 µM; with T-47D breast, over 100 µM; in the test with MALME-3M melanoma, over 100 µM; with SN12C renal, over 100 µM; in the test with NCI-H23 lung, over 100 µM. In addition, the TGI with IGROV1 ovarian turned out to be 38.1 µM; with CCRF-CEM leukemia, 38.5 µM.

With `C[C@H](c1ccccc1)N1C(=O)[C@@H](OCc2ccccc2)[C@H]1[C@H](COC(=O)COCc1ccccc1)OCc1ccccc1`, the TGI with NCI-H522 lung was over 100 µM; in the test with OVCAR-3 ovarian, over 100 µM; in the test on MALME-3M melanoma it was 76.7 µM; with SN12C renal, over 100 µM; in the test with NCI-H23 lung, over 100 µM; with IGROV1 ovarian, over 100 µM. In addition, the TGI in the test on CCRF-CEM leukemia was over 100 µM.

For the molecule `c1c(N2CCOCC2)ssc1=[N+]1CCOCC1`, the TGI with NCI-H522 lung, in the test on SF-539 CNS, in the test on OVCAR-4 ovarian, with MALME-3M melanoma, in the test with SN12C renal and in the test on NCI-H23 lung was over 100 µM throughout. The TGI in the test with IGROV1 ovarian and in the test with CCRF-CEM leukemia was over 100 µM throughout.

Turning to `N#Cc1nc(C2CCC(=O)O2)oc1N` (centres undefined), the TGI in the test on SF-539 CNS, with OVCAR-3 ovarian, in the test on MALME-3M melanoma, with SN12C renal, with NCI-H23 lung and in the test on IGROV1 ovarian was over 100 µM throughout. In the test on CCRF-CEM leukemia, this molecule gave a TGI of over 100 µM.

With `Cc1cccc(NS(=O)(=O)c2ccc(N=Nc3c(O)c(C(=O)O)cc4ccccc34)cc2)n1`, the TGI in the test with NCI-H522 lung, with SF-539 CNS, with OVCAR-3 ovarian, in the test with OVCAR-4 ovarian, in the test with MALME-3M melanoma and in the test with NCI-H23 lung was over 100 µM in each case. Moreover, the TGI in the test with IGROV1 ovarian and in the test on CCRF-CEM leukemia was over 100 µM each time.

For `COc1cc2[nH]c(=O)c3cc(-c4ccccc4)cc4c(Cl)nc(c1OC)c2c43`, the TGI was over 89.2 µM in the test with NCI-H522 lung; over 100 µM in the test on OVCAR-3 ovarian; over 64.4 µM in the test with OVCAR-4 ovarian; over 100 µM with T-47D breast; 17.1 µM with MALME-3M melanoma; over 100 µM in the test on SN12C renal. For the same molecule, the TGI in the test on NCI-H23 lung was 47.5 µM; in the test on IGROV1 ovarian, over 91 µM; with CCRF-CEM leukemia, over 67 µM.

Turning to `CC(=O)OC1CC2(O)C(CCC3(C)C(c4ccc(=O)oc4)CCC32O)C2(C)C1=CC(O)C1OC12` (centres undefined), the TGI in the test on NCI-H522 lung was determined as 0.0784 µM; with SF-539 CNS, 0.116 µM; in the test with OVCAR-3 ovarian, 0.0697 µM; in the test on OVCAR-4 ovarian, 0.121 µM; in the test with MALME-3M melanoma, 0.13 µM; in the test with SN12C renal it was 0.882 µM. The TGI amounted to 0.0618 µM with NCI-H23 lung, 0.753 µM in the test with IGROV1 ovarian and 0.487 µM with CCRF-CEM leukemia.

Regarding `CCCO/N=[N+](\[O-])N(CC)CC`, the TGI with NCI-H522 lung, with SF-539 CNS, in the test with OVCAR-3 ovarian, in the test with SN12C renal, with NCI-H23 lung and in the test with IGROV1 ovarian was over 100 µM each time. Also, in the test on CCRF-CEM leukemia, the TGI was over 100 µM.

For the molecule `Nc1c(S(N)(=O)=O)cc(S(N)(=O)=O)cc1S(N)(=O)=O`, the TGI with NCI-H522 lung, in the test on OVCAR-3 ovarian, in the test on OVCAR-4 ovarian, in the test with T-47D breast, with MALME-3M melanoma and in the test on SN12C renal was over 100 µM in each case. For the same molecule, the TGI in the test with NCI-H23 lung and in the test with IGROV1 ovarian was over 100 µM each time.
